Results from US10441608B2, “Continuous methods for treating liquids and manufacturing certain constituents (e.g., nanoparticles) in liquids, apparatuses and nanoparticles and nanoparticle/liquid solution(s) resulting therefrom” (Clene Nanomedicine, Inc., priority 2009, dated 2019).
Values after ≈ are worked out from the molar mass of the structure shown. Values joined by “and” are separate entries in the source; they are usually repeats but may differ in a detail not shown here. Equal values may be shown once. Read-outs that look alike come from different tables or passages of the source.

Legend:
[1] = tested on: Gram-Positive and Gram Negative bacteria; format: cell-based
[2] = tested on: Staphylococcus aureus ATCC-29213; test: Broth microdilution MIC/MID 50 against Staphylococcus aureus; format: cell-based
Description: The clinical and laboratory standards institute Broth Microdilution Methodology was employed, however, the growth medium used was an “RPMI” medium. Additionally, the methods for dilution and antimicrobial susceptibility tests for bacteria that grow aerobically were also followed with the noted exception of testing with alternative media (CLSI document […], CLSI, Wayne, Pa.). […] Under the column, “Isolate” identification beginning with either “GP” or “GN” occur. The “GP” corresponds to Gram-Positive bacteria and the “GN” corresponds to “Gram Negative” bacteria. Each of the organisms are specifically listed after the isolate identification.

C[C@H]1COc2c(N3CCN(C)CC3)c(F)cc3c(=O)c(C(=O)O)cn1c23 [Levofloxacin]
MIC/MID 50 ([1]; Citrobacter freundii - antibiotic-susceptible clinical isolate): 0.02 µg/mL (≈ 0.0553 µM)
MIC/MID 50 ([1]; Citrobacter freundii - resistant clinical isolate): 8.00 µg/mL (≈ 22.1 µM)
MIC/MID 50 ([1]; Enterobacter sp - antibiotic-susceptible clinical isolate): 0.12 µg/mL (≈ 0.332 µM)
MIC/MID 50 ([1]; Enterobacter sp - multi-drug resistant clinical isolate): 0.06 µg/mL (≈ 0.166 µM)
MIC/MID 50 ([1]; Enterococcus faecalis - ATCC 29212 antibiotic-susceptible control strain): 2.00 µg/mL (≈ 5.53 µM)
MIC/MID 50 ([1]; Enterococcus faecalis vancomycin-susceptible clinical isolate): 4.00 µg/mL (≈ 11.1 µM)
MIC/MID 50 ([1]; Enterococcus faecium vancomycin-resistant (VanB) clinical isolate): 4.00 µg/mL (≈ 11.1 µM)
MIC/MID 50 ([1]; Enterococcus gallinarum vancomycin-resistant (VanC) clinical isolate): 2.00 µg/mL (≈ 5.53 µM)
MIC/MID 50 ([1]; Escherichia coli ATCC25922 - antibiotic-susceptible type strain): 0.02 µg/mL (≈ 0.0553 µM)
MID/MIC (amount of antibiotic) ([1]; GN01 Escherichia coli ATCC25922, antibiotic-susceptible type strain): 0.015 µg/mL
MID/MIC (amount of antibiotic) ([1]; GN02 Escherichia coli ATCC35218, β-lactamase positive type strain): 0.015 µg/mL
MID/MIC (amount of antibiotic) ([1]; GN06 Enterobacter sp, antibiotic-susceptible clinical isolate): 0.06 µg/mL and 0.12 µg/mL
MID/MIC (amount of antibiotic) ([1]; GN10 Pseudomonas aeruginosa ATCC27853, antibiotic-susceptible type strain): 2 µg/mL
MID/MIC (amount of antibiotic) ([1]; GN11 Pseudomonas aeruginosa, multi-drug resistant clinical isolate): 2 µg/mL
MID/MIC (amount of antibiotic) ([1]; GN12 Stenotrophomonas maltophilia, antibiotic-susceptible clinical isolate): 0.25 µg/mL
MID/MIC (amount of antibiotic) ([1]; GN13 Stenotrophomonas maltophila, antibiotic-resistant clinical isolate): 1 µg/mL
MID/MIC (amount of antibiotic) ([1]; GN14 Burkholderia cepacia, antibiotic-susceptible clinical isolate): 4 µg/mL
MID/MIC (amount of antibiotic) ([1]; GN15 Proteus mirabilis, antibiotic-susceptible clinical isolate): 0.06 µg/mL
MID/MIC (amount of antibiotic) ([1]; GN16 Proteus mirabilis, multi-drug resistant clinical isolate): 2 µg/mL
MID/MIC (amount of antibiotic) ([1]; GN17 Salmonella sp, antibiotic-susceptible clinical isolate): 0.03 µg/mL
MID/MIC (amount of antibiotic) ([1]; GN18 Salmonella sp, multi-drug resistant clinical isolate): 0.06 µg/mL
MID/MIC (amount of antibiotic) ([1]; GN19 Shigella sp, antibiotic-susceptible clinical isolate): 0.03 µg/mL
MID/MIC (amount of antibiotic) ([1]; GN20 Shigella sp, multi-drug resistant clinical isolate): 0.03 µg/mL
MID/MIC (amount of antibiotic) ([1]; GN22 Morganella morganii, multi-drug resistant clinical isolate): 1 µg/mL
MID/MIC (amount of antibiotic) ([1]; GN23 Providencia stuartii, antibiotic-susceptible clinical isolate): 0.06 µg/mL
MID/MIC (amount of antibiotic) ([1]; GN24 Providencia stuartii, multi-drug resistant clinical isolate): 8 µg/mL
MID/MIC (amount of antibiotic) ([1]; GN28 Haemophilus influenzae, β-lactamase negative ampicillin-resistant clinical isolate): 0.06 µg/mL
MID/MIC (amount of antibiotic) ([1]; GN29 Moraxella catarrhalis, β-lactamase positive clinical isolate): 0.06 µg/mL
MID/MIC (amount of antibiotic) ([1]; GN32 Acinetobacter baumanii, multi-drug resistant clinical isolate): 8 µg/mL
MID/MIC (amount of antibiotic) ([1]; GN33 Bacteroides fragilis, antibiotic-susceptible clinical isolate, supplemented with 2% serum and 1 μg/mL Vit K): 0.015 µg/mL
MID/MIC (amount of antibiotic) ([1]; GP02 Staphylococcus aureus ATCC 25923, antibiotic-susceptible control strain): 0.12 µg/mL
MID/MIC (amount of antibiotic) ([1]; GP04 Staphylococcus aureus, methicillin-resistant clinical isolate): 0.12 µg/mL
MID/MIC (amount of antibiotic) ([1]; GP05 Staphylococcus aureus, multi-drug-resistant clinical isolate): 4 µg/mL
MID/MIC (amount of antibiotic) ([1]; GP06 Staphylococcus aureus, teicoplanin-intermediate clinical isolate): 4 µg/mL
MID/MIC (amount of antibiotic) ([1]; GP07 Staphylococcus epidermidis, antibiotic susceptible clinical isolate): 0.12 µg/mL
MID/MIC (amount of antibiotic) ([1]; GP08 Staphylococcus epidermidis, methicillin-resistant clinical isolate): 0.25 µg/mL
MID/MIC (amount of antibiotic) ([1]; GP09 Staphylococcus haemolyticus, antibiotic susceptible clinical isolate): 0.5 µg/mL
MID/MIC (amount of antibiotic) ([1]; GP10 Staphylococcus saprophyticus, antibiotic susceptible clinical isolate): 0.5 µg/mL
MID/MIC (amount of antibiotic) ([1]; GP11 Enterococcus faecalis ATCC 29212, antibiotic-susceptible control strain): 2 µg/mL
MID/MIC (amount of antibiotic) ([1]; GP12 Enterococcus faecalis, vancomycin-susceptible clinical isolate): 4 µg/mL
MID/MIC (amount of antibiotic) ([1]; GP15 Enterococcus faecalis, high-level gentamicin-resistant clinical isolate): >8 µg/mL
MID/MIC (amount of antibiotic) ([1]; GP16 Enterococcus faecium, vancomycin-susceptible clinical isolate): >8 µg/mL
MID/MIC (amount of antibiotic) ([1]; GP17 Enterococcus faecium, vancomycin-resistant (VanA) clinical isolate): 4 µg/mL
MID/MIC (amount of antibiotic) ([1]; GP18 Enterococcus faecium, vancomycin-resistant (VanB) clinical isolate): 2 µg/mL
MID/MIC (amount of antibiotic) ([1]; GP19 Enterococcus gallinarum, vancomycin-resistant (VanC) clinical isolate): 1 µg/mL
MID/MIC (amount of antibiotic) ([1]; GP20 Streptococcus pneumoniae ATCC 49619, antibiotic-susceptible control strain): 1 µg/mL
MID/MIC (amount of antibiotic) ([1]; GP21 Streptococcus pneumoniae, pencillin-susceptible clinical isolate): 0.5 µg/mL
MID/MIC (amount of antibiotic) ([1]; GP22 Streptococcus pneumoniae, penicillin-intermediate clinical isolate): 0.5 µg/mL
MID/MIC (amount of antibiotic) ([1]; GP23 Streptococcus pneumoniae, penicillin-resistant clinical isolate): 0.5 µg/mL and 1 µg/mL
MID/MIC (amount of antibiotic) ([1]; GP25 Streptococcus pyogenes, antibiotic-susceptible clinical isolate): 0.5 µg/mL
MID/MIC (amount of antibiotic) ([1]; GP29 Corynebacterium jeikeium, multi-drug resistant clinical isolate): 0.5 µg/mL
MID/MIC (amount of antibiotic) ([1]; GP30 Listeria monocytogenes, antibiotic-susceptible clinical isolate): 8 µg/mL
MID/MIC (amount of antibiotic) ([1]; GP31 MU50 Staphylococcus aureus (MRSA), VISA type strain): 0.06 µg/mL
MID/MIC (amount of antibiotic) ([1]; GP33 EMRSA16 Staphylococcus aureus (MRSA), SSCmec type 2): >8 µg/mL
MID/MIC (amount of antibiotic) ([1]; GP34 EMRSA1 Staphylococcus aureus (MRSA), SSCmec type 3): 0.12 µg/mL
MID/MIC (amount of antibiotic) ([1]; GP35 EMRSA15 Staphylococcus aureus (MRSA), SSCmec type 4): 0.06 µg/mL
MID/MIC (amount of antibiotic) ([1]; GP36 HT2001254 Staphylococcus aureus (MRSA), PVL positive): 0.12 µg/mL
MID/MIC (amount of antibiotic) ([1]; GP37 Streptococcus agalactiae, antibiotic-susceptible clinical isolate): 1 µg/mL
MID/MIC (amount of antibiotic) ([1]; GP38 Streptococcus agalactiae, macrolide-resistant clinical isolate): 1 µg/mL
MID/MIC (amount of antibiotic) ([1]; GP39 Group C Streptococcus, antibiotic-susceptible clinical isolate): 0.5 µg/mL
MID/MIC (amount of antibiotic) ([1]; GP41 Group G Streptococcus, antibiotic-susceptible clinical isolate): 0.25 µg/mL
MID/MIC (amount of antibiotic) ([1]; GP42 Group G Streptococcus, macrolide-resistant clinical isolate): 0.25 µg/mL
MID/MIC (amount of antibiotic) ([1]; GP43 Streptococcus mitis, antibiotic-susceptible clinical isolate): 1 µg/mL
MID/MIC (amount of antibiotic) ([1]; GP46 Streptococcus constellatus, macrolide-resistant clinical isolate): 1 µg/mL
MID/MIC (amount of antibiotic) ([1]; GP47 Streptococcus oralis, antibiotic-susceptible clinical isolate): 1 µg/mL
MID/MIC (amount of antibiotic) ([1]; GP48 Streptococcus oralis, macrolide-resistant clinical isolate): 1 µg/mL
MID/MIC (amount of antibiotic) ([1]; GP49 Streptococcus bovis, antibiotic-susceptible clinical isolate): 1 µg/mL
MID/MIC (amount of antibiotic) ([1]; GP50 Streptococcus bovis, macrolide-resistant clinical isolate): 0.5 µg/mL and 1 µg/mL
MID/MIC (amount of antibiotic) ([1]; GP51 Streptococcus sanguis, antibiotic-susceptible clinical isolate): 1 µg/mL and 0.5 µg/mL
MID/MIC (amount of antibiotic) ([1]; GP52 Streptococcus sanguis, macrolide-resistant clinical isolate): 1 µg/mL
MID/MIC (amount of antibiotic) ([1]; GP53 Clostridium perfringens, antibiotic-susceptible clinical isolate, supplemented with 2% serum and 1 μg/mL Vit K): 0.015 µg/mL
MID/MIC (amount of antibiotic) ([1]; GP55 Group C Streptococcus, antibiotic-resistant clinical isolate): 0.5 µg/mL
MIC/MID 50 ([1]; Listeria monocytogenes - antibiotic-susceptible clinical isolate): 0.50 µg/mL (≈ 1.38 µM)
MIC/MID 50 ([1]; Moraxella catarrhalis β-lactamase positive clinical isolate (first of two lines so named)): 0.06 µg/mL (≈ 0.166 µM)
MIC/MID 50 ([1]; Moraxella catarrhalis β-lactamase positive clinical isolate (second of two lines so named)): 0.06 µg/mL (≈ 0.166 µM)
MIC/MID 50 ([1]; Morganella morganii - multi-drug resistant clinical isolate): 1.00 µg/mL (≈ 2.77 µM)
MID/MIC (amount of antibiotic) ([1]; P8119035 Citrobacter freundii, resistant clinical isolate): 8 µg/mL
MIC/MID 50 ([1]; Proteus mirabilis - antibiotic-susceptible clinical isolate): 0.06 µg/mL (≈ 0.166 µM)
MIC/MID 50 ([1]; Proteus mirabilis - multi-drug resistant clinical isolate): 2.00 µg/mL (≈ 5.53 µM)
MIC/MID 50 ([1]; Staphylococcus aureus - multi-drug-resistant clinical isolate): 4.00 µg/mL (≈ 11.1 µM)
MIC/MID 50 ([1]; Staphylococcus aureus - teicoplanin-intermediate clinical isolate): 4.00 µg/mL (≈ 11.1 µM)
MIC/MID 50 ([1]; Staphylococcus aureus ATCC 25923 - antibiotic-susceptible control strain): 0.12 µg/mL (≈ 0.332 µM)
MIC/MID 50 ([1]; Staphylococcus aureus ATCC 43300 - methicillin-resistant control strain): 0.25 µg/mL (≈ 0.692 µM)
MIC/MID 50 ([1]; Staphylococcus epidermidis antibiotic susceptible clinical isolate): 0.12 µg/mL (≈ 0.332 µM)
MIC/MID 50 ([1]; Staphylococcus epidermidis methicillin-resistant clinical isolate): 0.25 µg/mL (≈ 0.692 µM)
MIC/MID 50 ([1]; Staphylococcus haemolyticus - antibiotic susceptible clinical isolate): 0.50 µg/mL (≈ 1.38 µM)
MIC/MID 50 ([1]; Staphylococcus saprophyticus - antibiotic susceptible clinical isolate): 0.50 µg/mL (≈ 1.38 µM)
MIC/MID 50 ([1]; Stenotrophomonas maltophila - antibiotic-resistant clinical isolate): 1.00 µg/mL (≈ 2.77 µM)
MIC/MID 50 ([1]; Stenotrophomonas maltophilia - antibiotic-susceptible clinical isolate): 0.25 µg/mL (≈ 0.692 µM)
MIC/MID 50 ([1]; Streptococcus agalactiae - antibiotic-susceptible clinical isolate): 1.00 µg/mL (≈ 2.77 µM)
MIC/MID 50 ([1]; Streptococcus agalactiae - macrolide-resistant clinical isolate): 1.00 µg/mL (≈ 2.77 µM)
MIC/MID 50 ([1]; Streptococcus bovis - antibiotic-susceptible clinical isolate): 1.00 µg/mL (≈ 2.77 µM)
MIC/MID 50 ([1]; Streptococcus bovis - macrolide-resistant clinical isolate): 1.00 µg/mL (≈ 2.77 µM)
MIC/MID 50 ([1]; Streptococcus mitis - macrolide-resistant clinical isolate): 1.00 µg/mL (≈ 2.77 µM)
MIC/MID 50 ([1]; Streptococcus oralis - antibiotic-susceptible clinical isolate): 1.00 µg/mL (≈ 2.77 µM)
MIC/MID 50 ([1]; Streptococcus oralis - macrolide-resistant clinical isolate): 1.00 µg/mL (≈ 2.77 µM)
MIC/MID 50 ([1]; Streptococcus pneumoniae - ATCC 49619 antibiotic-susceptible control strain): 1.00 µg/mL (≈ 2.77 µM)
MIC/MID 50 ([1]; Streptococcus pneumoniae - multi-drug resistant clinical isolate): 1.00 µg/mL (≈ 2.77 µM)
MIC/MID 50 ([1]; Streptococcus pneumoniae - pencillin-susceptible clinical isolate): 1.00 µg/mL (≈ 2.77 µM)
MIC/MID 50 ([1]; Streptococcus pneumoniae - penicillin-intermediate clinical isolate): 0.50 µg/mL (≈ 1.38 µM)
MIC/MID 50 ([1]; Streptococcus pneumoniae - penicillin-resistant clinical isolate): 0.50 µg/mL (≈ 1.38 µM)
MIC/MID 50 ([1]; Streptococcus pyogenes - Macrolide (MLS) resistant clinical isolate): 0.50 µg/mL (≈ 1.38 µM)
MIC/MID 50 ([1]; Streptococcus sanguis - antibiotic-susceptible clinical isolate): 0.50 µg/mL (≈ 1.38 µM)
MIC/MID 50 ([1]; Streptococcus sanguis - macrolide-resistant clinical isolate): 1.00 µg/mL (≈ 2.77 µM)
MID/MIC (amount of antibiotic) ([2]; GP01 Staphylococcus aureus ATCC 29213, antibiotic-susceptible control strain): 0.12 µg/mL
MIC/MID 50 ([2]; Staphylococcus aureus ATCC 29213 - antibiotic-susceptible control strain): 0.12 µg/mL (≈ 0.332 µM)
